Results on five compounds are retold here after patent publication US12723063B2, “GIPR-agonist compounds” (Eli Lilly and Company, priority 2019, dated 2026).

pKi: −log10 of the molar value. *1 amine or outer side, *2 acyl side, *3 side chain or, on linkers, in order; H or OH if unused. Where a SMILES comes first, the peptide text is derived from it. Side-chain parts run from the residue outwards. [ ]: non-standard residue; d: D form. The star is where a group is joined. C20 diacid = O=C(O)CCCCCCCCCCCCCCCCCCC(=O)*; C18 diacid = O=C(O)CCCCCCCCCCCCCCCCC(=O)*; αMePhe(2-F) = C[C@](N)(Cc1ccccc1F)C(=O)O; γGlu = O=C(O)[C@H](CCC(=O)[*:2])N[*:1]; αMeL = CC(C)C[C@](C)(N)C(=O)O; AEEA = NCCOCCOCC(=O)O; Aib = CC(C)(N)C(=O)O

The experiment deals with T1, human GLP-1R (Homo sapiens, UniProt P43220).
T1 construct: expressed in transfected cells; crude membranes
T1 sequence (P43220 24-463): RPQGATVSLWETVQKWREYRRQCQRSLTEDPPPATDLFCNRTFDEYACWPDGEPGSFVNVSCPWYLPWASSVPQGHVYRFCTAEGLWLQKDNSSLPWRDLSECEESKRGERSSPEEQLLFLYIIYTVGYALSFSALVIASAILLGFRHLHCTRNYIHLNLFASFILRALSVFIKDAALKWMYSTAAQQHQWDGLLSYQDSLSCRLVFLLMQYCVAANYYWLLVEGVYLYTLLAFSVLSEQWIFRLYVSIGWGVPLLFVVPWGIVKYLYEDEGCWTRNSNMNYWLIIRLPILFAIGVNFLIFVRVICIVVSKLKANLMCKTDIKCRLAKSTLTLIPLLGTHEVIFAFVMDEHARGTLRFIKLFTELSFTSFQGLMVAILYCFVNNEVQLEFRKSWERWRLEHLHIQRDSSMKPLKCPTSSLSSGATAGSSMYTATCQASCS
The experiment in a line: [125I]-GLP-1 binding, SPA with WGA beads, 0.1% bacitracin. The following applies: geometric mean, read-out: hGLP1R Ki. In short, it runs like this: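 Binding buffer was 25 mM HEPES pH 7.4 with 2.5 mM CaCl2, 1 mM MgCl2, 0.1% (w/v) bacitracin, 0.003% Tween-20 and EDTA-free protease inhibitors. Four-parameter regression gave IC50, converted to Ki (geometric mean, SEM, n independent days).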
One may read the pKi as −log10 of the Ki, conventionally taken in molar units. Take `CC[C@H](C)[C@H](NC(=O)[C@H](CO)NC(=O)[C@H](Cc1ccc(O)cc1)NC(=O)[C@H](CC(=O)O)NC(=O)[C@H](CO)NC(=O)[C@@H](NC(=O)[C@H](Cc1ccccc1)NC(=O)[C@@H](NC(=O)CNC(=O)[C@H](CCC(=O)O)NC(=O)[C@@H](C)NC(=O)[C@@H](N)Cc1ccc(O)cc1)[C@@H](C)O)[C@@H](C)CC)C(=O)N[C@@H](CC(C)C)C(=O)N[C@@H](CC(C)C)C(=O)N[C@@H](CC(=O)O)C(=O)N[C@@H](CCCCN)C(=O)N[C@@H](CCCCNC(=O)COCCOCCNC(=O)COCCOCCNC(=O)CC[C@H](NC(=O)CCCCCCCCCCCCCCCCC(=O)O)C(=O)O)C(=O)N[C@@H](C)C(=O)N[C@@H](CCC(N)=O)C(=O)NC(C)(C)C(=O)N[C@@H](CCC(=O)O)C(=O)N[C@@H](Cc1ccccc1)C(=O)N[C@H](C(=O)N[C@@H](CC(N)=O)C(=O)N[C@@H](Cc1c[nH]c2ccccc12)C(=O)N[C@@H](CC(C)C)C(=O)N[C@@H](CC(C)C)C(=O)N[C@@H](CCC(=O)O)C(=O)NCC(=O)NCC(=O)N1CCC[C@H]1C(=O)N[C@@H](CO)C(=O)N[C@@H](CO)C(=O)NCC(=O)N[C@@H](C)C(=O)N1CCC[C@H]1C(=O)N1CCC[C@H]1C(=O)N1CCC[C@H]1C(=O)N[C@@H](CO)C(N)=O)C(C)C` [Example 28] (H-Y[dA]EGTFISDYSILLDKK([AEEA-AEEA-γGlu-C18 diacid])AQ[Aib]EFVNWLLEGGPSSGAPPPS-NH2): the pKi was 8.19.

Take `CC[C@H](C)[C@H](NC(=O)[C@H](CO)NC(=O)[C@H](Cc1ccc(O)cc1)NC(=O)[C@H](CC(=O)O)NC(=O)[C@H](CO)NC(=O)[C@@H](NC(=O)[C@H](Cc1ccccc1)NC(=O)[C@@H](NC(=O)CNC(=O)[C@H](CCC(=O)O)NC(=O)[C@@H](C)NC(=O)[C@@H](N)Cc1ccc(O)cc1)[C@@H](C)O)[C@@H](C)CC)C(=O)N[C@@H](CC(C)C)C(=O)N[C@@H](CC(C)C)C(=O)N[C@@H](CC(=O)O)C(=O)N[C@@H](CCCCN)C(=O)N[C@@H](CCCCNC(=O)COCCOCCNC(=O)COCCOCCNC(=O)CC[C@H](NC(=O)CCCCCCCCCCCCCCCCC(=O)O)C(=O)O)C(=O)N[C@@H](C)C(=O)N[C@@H](CCC(N)=O)C(=O)NC(C)(C)C(=O)N[C@@H](CCC(=O)O)C(=O)N[C@@H](Cc1ccccc1)C(=O)N[C@H](C(=O)N[C@@H](CCC(=O)O)C(=O)N[C@@H](Cc1c[nH]c2ccccc12)C(=O)N[C@@H](CC(C)C)C(=O)N[C@@H](CC(C)C)C(=O)N[C@@H](C)C(=O)NCC(=O)NCC(=O)N1CCC[C@H]1C(=O)N[C@@H](CO)C(=O)N[C@@H](CO)C(=O)NCC(=O)N[C@@H](C)C(=O)N1CCC[C@H]1C(=O)N1CCC[C@H]1C(=O)N1CCC[C@H]1C(=O)N[C@@H](CO)C(N)=O)C(C)C` [Example 29] (H-Y[dA]EGTFISDYSILLDKK([AEEA-AEEA-γGlu-C18 diacid])AQ[Aib]EFVEWLLAGGPSSGAPPPS-NH2): the pKi is 7.64.

As to `CC[C@H](C)[C@H](NC(=O)[C@H](CO)NC(=O)[C@H](Cc1ccc(O)cc1)NC(=O)[C@H](CC(=O)O)NC(=O)[C@H](CO)NC(=O)[C@@H](NC(=O)[C@](C)(Cc1ccccc1F)NC(=O)[C@@H](NC(=O)CNC(=O)[C@H](CCC(=O)O)NC(=O)[C@H](C)NC(=O)[C@@H](Cc1ccc(O)cc1)NC(C)=O)[C@@H](C)O)[C@@H](C)CC)C(=O)N[C@@H](C)C(=O)N[C@@H](CC(C)C)C(=O)N[C@@H](CC(=O)O)C(=O)N[C@@H](CCCCN)C(=O)N[C@@H](CCCCNC(=O)COCCOCCNC(=O)COCCOCCNC(=O)CC[C@H](NC(=O)CCCCCCCCCCCCCCCCC(=O)O)C(=O)O)C(=O)N[C@@H](Cc1c[nH]cn1)C(=O)N[C@@H](CCC(N)=O)C(=O)NC(C)(C)C(=O)N[C@@H](CCC(=O)O)C(=O)N[C@@H](Cc1ccccc1)C(=O)N[C@H](C(=O)N[C@@H](CC(N)=O)C(=O)N[C@@H](Cc1ccc(O)cc1)C(=O)N[C@@H](CC(C)C)C(=O)N[C@@H](CC(C)C)C(=O)N[C@@H](C)C(=O)NCC(=O)NCC(=O)N1CCC[C@H]1C(=O)N[C@@H](CO)C(=O)N[C@@H](CO)C(=O)NCC(=O)N[C@@H](C)C(=O)N1CCC[C@H]1C(=O)N1CCC[C@H]1C(=O)N1CCC[C@H]1C(=O)N[C@@H](CO)C(N)=O)C(C)C` [Example 30] (Ac-[dY]AEGT[αMePhe(2-F)]ISDYSIALDKK([AEEA-AEEA-γGlu-C18 diacid])HQ[Aib]EFVNYLLAGGPSSGAPPPS-NH2), the pKi was 7.58.

Take `CC[C@H](C)[C@H](NC(=O)[C@H](CO)NC(=O)[C@H](Cc1ccc(O)cc1)NC(=O)[C@H](CC(=O)O)NC(=O)[C@H](CO)NC(=O)[C@@H](NC(=O)[C@H](Cc1ccccc1)NC(=O)[C@@H](NC(=O)CNC(=O)[C@H](CCC(=O)O)NC(=O)C(C)(C)NC(=O)[C@@H](N)Cc1ccc(O)cc1)[C@@H](C)O)[C@@H](C)CC)C(=O)N[C@@H](CC(C)C)C(=O)N[C@@H](CC(C)C)C(=O)N[C@@H](CC(=O)O)C(=O)N[C@@H](CCCCN)C(=O)N[C@@H](CCCCNC(=O)COCCOCCNC(=O)COCCOCCNC(=O)CC[C@H](NC(=O)CCCCCCCCCCCCCCCCC(=O)O)C(=O)O)C(=O)N[C@@H](Cc1c[nH]cn1)C(=O)N[C@@H](CCC(N)=O)C(=O)NC(C)(C)C(=O)N[C@@H](CC(=O)O)C(=O)N[C@@H](Cc1ccccc1)C(=O)N[C@H](C(=O)N[C@@H](CC(N)=O)C(=O)N[C@@H](Cc1ccc(O)cc1)C(=O)N[C@@H](CC(C)C)C(=O)N[C@@H](CC(C)C)C(=O)N[C@@H](C)C(=O)N[C@@H](C)C(=O)NCC(=O)N1CCC[C@H]1C(=O)N[C@@H](CO)C(=O)N[C@@H](CO)C(=O)NCC(=O)N[C@@H](C)C(=O)N1CCC[C@H]1C(=O)N1CCC[C@H]1C(=O)N1CCC[C@H]1C(=O)N[C@@H](CO)C(N)=O)C(C)C` [Example 31] (H-Y[Aib]EGTFISDYSILLDKK([AEEA-AEEA-γGlu-C18 diacid])HQ[Aib]DFVNYLLAAGPSSGAPPPS-NH2): the pKi is 6.58.

Regarding `CC[C@H](C)[C@H](NC(=O)[C@H](CC(C)C)NC(=O)[C@@H](NC(=O)CNC(=O)[C@H](CCC(=O)O)NC(=O)C(C)(C)NC(=O)[C@@H](N)Cc1ccc(O)cc1)[C@@H](C)O)C(=O)N[C@@H](CO)C(=O)N[C@@H](CC(=O)O)C(=O)N[C@@H](Cc1ccc(O)cc1)C(=O)N[C@@H](CO)C(=O)N[C@H](C(=O)N[C@@](C)(CC(C)C)C(=O)N[C@@H](CC(C)C)C(=O)N[C@@H](CC(=O)O)C(=O)N[C@@H](CCCCN)C(=O)N[C@@H](CCCCNC(=O)COCCOCCNC(=O)COCCOCCNC(=O)CC[C@H](NC(=O)CCCCCCCCCCCCCCCCCCC(=O)O)C(=O)O)C(=O)N[C@@H](Cc1c[nH]cn1)C(=O)N[C@@H](CCC(N)=O)C(=O)NC(C)(C)C(=O)N[C@@H](CCC(=O)O)C(=O)N[C@@H](Cc1ccccc1)C(=O)N[C@H](C(=O)N[C@@H](CCC(=O)O)C(=O)N[C@@H](Cc1ccc(O)cc1)C(=O)N[C@@H](CC(C)C)C(=O)N[C@@H](CC(C)C)C(=O)N[C@@H](CCC(=O)O)C(=O)NCC(=O)NCC(=O)N1CCC[C@H]1C(=O)N[C@@H](CO)C(=O)N[C@@H](CO)C(=O)NCC(=O)N[C@@H](C)C(=O)N1CCC[C@H]1C(=O)N1CCC[C@H]1C(=O)N1CCC[C@H]1C(=O)N[C@@H](CO)C(N)=O)C(C)C)[C@@H](C)CC` [Example 73] (H-Y[Aib]EGTLISDYSI[αMeL]LDKK([AEEA-AEEA-γGlu-C20 diacid])HQ[Aib]EFVEYLLEGGPSSGAPPPS-NH2), the pKi was 6.93.
